In patent US20260109707A1, “HETEROBIFUNCTIONAL COMPOUNDS AND METHODS OF TREATING DISEASE” (Halda Therapeutics OpCo. Inc., priority 2022, published 2026):
Where two headings read alike, the source gives them in different places.

What was measured:
[1] = tested on: T-Rex 293 cell line SC3 cells having increased expression of androgen receptor protein due to exposure to doxycycline; experiment: Cellular growth inhibition assay, T-Rex 293 SC3 cells with doxycycline (CellTiter-Glo, 72 hours); format: cell-based; details: T-Rex 293 SC3 cells with increased androgen receptor expression due to doxycycline (10 ng/mL)
Summary of the method: (§1)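 Growth inhibition is measured in an inducible AR-expressing T-Rex 293 clone, SC3, cultured with or without 10 ng/mL doxycycline in hormone-depleted medium. Test compounds are applied for 72 hours. GI50 values derive from CellTiter-Glo 2.0 signal fitted by four-parameter regression.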

VCaP cells = experiment: Cellular growth inhibition assay for VCaP cells (CellTiter-Glo, 72 hours); format: cell-based, human
Summary of the method: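 Luminescent viability signal after 72 h of compound exposure gave GI50 values by four-parameter nonlinear regression. Compounds were added in 0.5% DMSO to cells plated 24 h earlier at 5000/well in DMEM containing 10% FBS.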

[2] = tested on: T-Rex 293 cell line SC3 cells lacking increased expression of androgen receptor protein; experiment: Cellular growth inhibition assay, T-Rex 293 SC3 cells without doxycycline (CellTiter-Glo, 72 hours); format: cell-based; details: T-Rex 293 cell line SC3 cells not exposed to doxycycline (lacking increased androgen receptor expression)
Summary of the method: as §1

| GI50 (VCaP cells) [nM] | GI50 (VCaP cells; Homo sapiens, VCaP, 72 h) [nM] | SMILES | GI50 [1] [nM] | GI50 [2] [nM] | GI50 ([1]; 72 h) [nM] | GI50 ([2]; 72 h) [nM] |
| --- | --- | --- | --- | --- | --- | --- |
| < 500 | – | Cc1sc2c(c1C)C(c1ccc(CC3CCC4(CCCN(c5ccc(C(=O)N[C@H]6CC[C@H](Oc7ccc(C#N)c(Cl)c7)CC6)nn5)C4)C3)cn1)=N[C@@H](C)c1nnc(C)n1-2 (stereo partly drawn) [I-635] | < 500 | < 500 | – | – |
| < 500 | – | Cc1sc2c(c1C)C(c1ccc(CC3CCC4(CCCN(c5ccc(C(=O)N[C@H]6CC[C@H](Oc7ccc(C#N)c(Cl)c7)CC6)nn5)C4)C3)cn1)=N[C@@H](C)c1nnc(C)n1-2 (stereo partly drawn) [I-636] | < 500 | 500 to 1500 | – | – |
| < 500 | – | Cc1sc2c(c1C)C(c1ccc(OCC3CCC4(CCCN(c5ccc(C(=O)N[C@H]6CC[C@H](Oc7ccc(C#N)c(Cl)c7)CC6)nn5)C4)C3)cc1)=N[C@@H](C)c1nnc(C)n1-2 (stereo partly drawn) [I-637] | < 500 | < 500 | – | – |
| 1500 to 3000 | – | Cc1sc2c(c1C)C(c1ccc(OCC3CCC4(C3)CN(c3ccc(C(=O)N[C@H]5CC[C@H](Oc6ccc(C#N)c(Cl)c6)CC5)nn3)CCO4)cc1)=N[C@@H](C)c1nnc(C)n1-2 (stereo partly drawn) [I-638] | < 500 | < 500 | – | – |
| > 3000 | – | Cc1sc2c(c1C)C(c1ccc(OCC3CCC4(C3)CN(c3ccc(C(=O)N[C@H]5CC[C@H](Oc6ccc(C#N)c(Cl)c6)CC5)nn3)CCO4)cc1)=N[C@@H](C)c1nnc(C)n1-2 (stereo partly drawn) [I-639] | < 500 | > 3000 | – | – |
| – | < 500 | Cc1sc2c(c1C)C(c1ccc(CC3CN(C(C)(C)C4CCN(c5ccc(C(=O)N[C@H]6CC[C@H](Oc7ccc(C#N)c(Cl)c7)CC6)nn5)CC4)C3)cc1)=N[C@@H](C)c1nnc(C)n1-2 [I-640] | – | – | < 500 | > 3000 |
| – | < 500 | Cc1sc2c(c1C)C(c1ccc(N3CCC4(CCN(c5ccc(C(=O)N[C@H]6CC[C@H](Oc7ccc(C#N)c(Cl)c7)CC6)nn5)CC4)C3)cc1)=N[C@@H](C)c1nnc(C)n1-2 [I-641] | – | – | < 500 | < 500 |
| – | > 3000 | Cc1sc2c(c1C)C(c1ccc(CC3CC4(CCCN(c5ccc(C(=O)N[C@H]6CC[C@H](Oc7ccc(C#N)c(Cl)c7)CC6)nn5)C4)C3)cn1)N[C@@H](Cc1ncco1)c1nnc(C)n1-2 (stereo partly drawn) [I-642] | – | – | < 500 | > 3000 |
| – | < 500 | Cc1sc2c(c1C)C(c1ccc(CCC3CC4(CCCN(c5ccc(C(=O)N[C@H]6CC[C@H](Oc7ccc(C#N)c(Cl)c7)CC6)nn5)C4)C3)cn1)N[C@@H](Cc1ncco1)c1nnc(C)n1-2 (stereo partly drawn) [I-643] | – | – | < 500 | > 3000 |
| < 500 | – | Cc1sc2c(c1C)C(c1ccc(CCC3CC4(CCCN(c5ccc(C(=O)N[C@H]6CC[C@H](Oc7ccc(C#N)c(Cl)c7)CC6)nn5)C4)C3)cn1)N[C@@H](Cc1ncco1)c1nnc(C)n1-2 (stereo partly drawn) [I-644] | < 500 | > 3000 | – | – |
| – | < 500 | Cc1sc2c(c1C)C(c1ccc(C#CC3CC(Cc4ccc(C(=O)N[C@H]5CC[C@H](Oc6ccc(C#N)c(Cl)c6)CC5)nn4)C3)cc1)=N[C@@H](Cc1ncco1)c1nnc(C)n1-2 (stereo partly drawn) [I-645] | – | > 3000 | < 500 | – |
| < 500 | – | Cc1sc2c(c1C)C(c1ccc(C#CC3CC(Cc4ccc(C(=O)N[C@H]5CC[C@H](Oc6ccc(C#N)c(Cl)c6)CC5)nn4)C3)cc1)=N[C@@H](Cc1ncco1)c1nnc(C)n1-2 (stereo partly drawn) [I-646] | < 500 | < 500 | – | – |
| – | < 500 | Cc1sc2c(c1C)C(c1cccc(OCCC3CCN(c4ccc(C(=O)N[C@H]5CC[C@H](Oc6ccc(C#N)c(Cl)c6)CC5)nn4)CC3)c1)=N[C@@H](C)c1nnc(C)n1-2 [I-647] | – | – | < 500 | > 3000 |
| – | < 500 | Cc1sc2c(c1C)C(c1cccc(OC3CC4(CCN(c5ccc(C(=O)N[C@H]6CC[C@H](Oc7ccc(C#N)c(Cl)c7)CC6)nn5)CC4)C3)c1)=N[C@@H](C)c1nnc(C)n1-2 [I-648] | – | – | < 500 | 500 to 1500 |
| – | < 500 | Cc1sc2c(c1C)C(c1ccccc1OC1CCN(c3ccc(C(=O)N[C@H]4CC[C@H](Oc5ccc(C#N)c(Cl)c5)CC4)nn3)CC1)=N[C@@H](C)c1nnc(C)n1-2 [I-649] | – | – | > 3000 | > 3000 |
| 1500 to 3000 | – | Cc1sc2c(c1C)C(c1ccccc1OCC1CCN(c3ccc(C(=O)N[C@H]4CC[C@H](Oc5ccc(C#N)c(Cl)c5)CC4)nn3)CC1)=N[C@@H](C)c1nnc(C)n1-2 [I-650] | < 500 | > 3000 | – | – |
| – | < 500 | Cc1sc2c(c1C)C(c1ccccc1OC1CC3(CCN(c4ccc(C(=O)N[C@H]5CC[C@H](Oc6ccc(C#N)c(Cl)c6)CC5)nn4)CC3)C1)=N[C@@H](C)c1nnc(C)n1-2 [I-651] | – | – | > 3000 | > 3000 |
| – | < 500 | CC[C@@H]1N=C(c2ccc(C3CCC4(CCCN(c5ccc(C(=O)N[C@H]6CC[C@H](Oc7ccc(C#N)c(Cl)c7)CC6)nn5)C4)CC3)cc2)c2c(sc(C)c2C)-n2c(C)nnc21 (stereo partly drawn) [I-652] | – | – | < 500 | > 3000 |

| GI50 (VCaP cells) [nM] | GI50 (VCaP cells; Homo sapiens, VCaP, 72 h) [nM] | SMILES | GI50 [1] [nM] | GI50 [2] [nM] | GI50 ([1]; 72 h) [nM] | GI50 ([2]; 72 h) [nM] |
| --- | --- | --- | --- | --- | --- | --- |
| < 500 | – | CC[C@@H]1N=C(c2ccc(C3CCC4(CCCN(c5ccc(C(=O)N[C@H]6CC[C@H](Oc7ccc(C#N)c(Cl)c7)CC6)nn5)C4)CC3)cc2)c2c(sc(C)c2C)-n2c(C)nnc21 (stereo partly drawn) [I-653] | < 500 | > 3000 | – | – |
| – | < 500 | COC[C@@H]1N=C(c2ccc(C3CCC4(CCCN(c5ccc(C(=O)N[C@H]6CC[C@H](Oc7ccc(C#N)c(Cl)c7)CC6)nn5)C4)CC3)cc2)c2c(sc(C)c2C)-n2c(C)nnc21 (stereo partly drawn) [I-654] | – | > 3000 | < 500 | – |
| 500 to 1500 | – | COC[C@@H]1N=C(c2ccc(C3CCC4(CCCN(c5ccc(C(=O)N[C@H]6CC[C@H](Oc7ccc(C#N)c(Cl)c7)CC6)nn5)C4)CC3)cc2)c2c(sc(C)c2C)-n2c(C)nnc21 (stereo partly drawn) [I-655] | < 500 | < 500 | – | – |
| – | < 500 | COCC[C@@H]1N=C(c2ccc(C3CCC4(CCCN(c5ccc(C(=O)N[C@H]6CC[C@H](Oc7ccc(C#N)c(Cl)c7)CC6)nn5)C4)CC3)cc2)c2c(sc(C)c2C)-n2c(C)nnc21 (stereo partly drawn) [I-656] | – | – | < 500 | > 3000 |
| 500 to 1500 | – | COCC[C@@H]1N=C(c2ccc(C3CCC4(CCCN(c5ccc(C(=O)N[C@H]6CC[C@H](Oc7ccc(C#N)c(Cl)c7)CC6)nn5)C4)CC3)cc2)c2c(sc(C)c2C)-n2c(C)nnc21 (stereo partly drawn) [I-657] | < 500 | > 3000 | – | – |
| – | < 500 | COC[C@@H]1N=C(c2ccc(C3CCC4(CCN(c5ccc(C(=O)N[C@H]6CC[C@H](Oc7ccc(C#N)c(Cl)c7)CC6)nn5)CC4)C3)cc2)c2c(sc(C)c2C)-n2c(C)nnc21 (stereo partly drawn) [I-658] | – | – | < 500 | < 500 |
| < 500 | – | COC[C@@H]1N=C(c2ccc(C3CCC4(CCN(c5ccc(C(=O)N[C@H]6CC[C@H](Oc7ccc(C#N)c(Cl)c7)CC6)nn5)CC4)C3)cc2)c2c(sc(C)c2C)-n2c(C)nnc21 (stereo partly drawn) [I-659] | < 500 | < 500 | – | – |
| – | < 500 | COCC[C@@H]1N=C(c2ccc(CC3CC4(CCN(c5ccc(C(=O)N[C@H]6CC[C@H](Oc7ccc(C#N)c(Cl)c7)CC6)nn5)CC4)C3)cc2)c2c(sc(C)c2C)-n2c(C)nnc21 [I-660] | – | – | < 500 | 500 to 1500 |
| – | < 500 | COCC[C@@H]1N=C(c2ccc(OC3CC4(CCCN(c5ccc(C(=O)N[C@H]6CC[C@H](Oc7ccc(C#N)c(Cl)c7)CC6)nn5)C4)C3)cc2)c2c(sc(C)c2C)-n2c(C)nnc21 (stereo partly drawn) [I-662] | – | – | < 500 | 500 to 1500 |
| < 500 | – | COCC[C@@H]1N=C(c2ccc(OC3CC4(CCCN(c5ccc(C(=O)N[C@H]6CC[C@H](Oc7ccc(C#N)c(Cl)c7)CC6)nn5)C4)C3)cc2)c2c(sc(C)c2C)-n2c(C)nnc21 (stereo partly drawn) [I-663] | < 500 | < 500 | – | – |
| – | < 500 | Cc1sc2c(c1C)C(c1ccc(N3C[C@@H]4CN(c5ccc(C(=O)N[C@H]6CC[C@H](Oc7ccc(C#N)c(Cl)c7)CC6)nn5)C[C@H]4C3)cc1)=NC1(CC1)c1nnc(C)n1-2 [I-664] | – | – | < 500 | < 500 |
| – | < 500 | Cc1sc2c(c1C)C(c1ccc(CC3CCC4(CCCN(c5ccc(C(=O)N[C@H]6CC[C@H](Oc7ccc(C#N)c(Cl)c7)CC6)nn5)C4)C3)nc1)=N[C@@H](C)c1nnc(C)n1-2 (stereo partly drawn) [I-665] | – | – | < 500 | > 3000 |
| < 500 | – | Cc1sc2c(c1C)C(c1ccc(CC3CCC4(CCCN(c5ccc(C(=O)N[C@H]6CC[C@H](Oc7ccc(C#N)c(Cl)c7)CC6)nn5)C4)C3)nc1)=N[C@@H](C)c1nnc(C)n1-2 (stereo partly drawn) [I-666] | < 500 | > 3000 | – | – |
| < 500 | – | Cc1sc2c(c1C)C(c1ccc(OCC3CCC4(C3)CN(c3ccc(C(=O)N[C@H]5CC[C@H](Oc6ccc(C#N)c(Cl)c6)CC5)nn3)CCO4)cc1)=N[C@@H](C)c1nnc(C)n1-2 (stereo partly drawn) [I-667] | – | < 500 | < 500 | – |
| < 500 | – | Cc1sc2c(c1C)C(c1ccc(OCC3CCC4(C3)CN(c3ccc(C(=O)N[C@H]5CC[C@H](Oc6ccc(C#N)c(Cl)c6)CC5)nn3)CCO4)cc1)=N[C@@H](C)c1nnc(C)n1-2 (stereo partly drawn) [I-668] | < 500 | < 500 | – | – |
| – | < 500 | Cc1sc2c(c1C)C(c1ccc(CCCC3CCCN(c4ccc(C(=O)N[C@H]5CC[C@H](Oc6ccc(C#N)c(Cl)c6)CC5)nn4)CC3)cc1)=N[C@@H](C)c1nnc(C)n1-2 (stereo partly drawn) [I-669] | – | > 3000 | < 500 | – |
| < 500 | – | Cc1sc2c(c1C)C(c1ccc(CCCC3CCCN(c4ccc(C(=O)N[C@H]5CC[C@H](Oc6ccc(C#N)c(Cl)c6)CC5)nn4)CC3)cc1)=N[C@@H](C)c1nnc(C)n1-2 (stereo partly drawn) [I-670] | < 500 | < 500 | – | – |
